Reference: US7608585B2, “Compositions for inhibition of necrosis induced by a neurotrophin” (Neurotech Pharmaceuticals Co., Ltd., priority 2004, dated 2009)

Tests used:
Assay type in all cases: cell-based, Rat
ROS in cortical neurons = test: ROS imaging by oxidized DCDHF-DA (DCF) and hydroethidine fluorescence
Protocol: Cortical cell cultures (DIV 12-15) grown on glass bottom dishes were loaded with 10 μM dichlorodihydro fluorescein diacetate (DCDHF-DA) or 5 μM hydroethidium (Molecular Probes, Eugene, Oreg.) plus 2% Pluronic F-127 in HEPES-buffered control salt solution (HCSS) buffer containing (in mM): 120 NaCl, 5 KCl, 1.6 MgCl2, 2.3 CaCl2, 15 glucose, 20 HEPES, and 10 NaOH. Cultures were incubated for 20 min at 37° C., and washed three times with HCSS buffer. […] The fluorescence images were analyzed using a QuantiCell 700 system (Applied imaging, UK).
Superoxide production through activation of NADPH oxidase was analyzed by measuring the oxidation of HEt and DCDHF to ethidium and DCF, respectively, in cortical neurons after exposure to a sham operation, 100 ng/ml BDNF, or 100 ng/ml BDNF plus 3 nM DPI for 32 hr (FIG. 15).

[1] = test system: NADPH oxidase (p22-phox, gp91-phox, p47-phox) mRNA; test: RT-PCR of NADPH oxidase subunit mRNA
Protocol: RT-PCR experiments were performed to confirm the BDNF-sensitive genes derived from cDNA expression microarray, cytochrome b558 as it constitutes p22-phox and gp91-phox subunits of NADPH oxidase, a pro-oxidant enzyme generating superoxide from oxygen.
Total RNA (1 μg each) was incubated in a reaction mixture containing dNTP (2.5 mM each), RNasin (0.5 Unit), oligo dT primer (100 ng), and MMLV reverse transcriptase (200 Unit) at 37° C. for 1 hr. The samples were incubated at 92° C. for 10 min and transferred to 4° C. The reverse transcribed cDNA was subjected to PCR amplification. PCR was performed according to manufacturer's procedure (Takara Shuzo Co., Japan) sequentially (denaturation-annealing-extension) at following conditions: for p47-phox, 94° C. for 30 S, 55° C. for 30 S, and 72° C. for 60 S (28 cycles); for p22-phox (homologous to cytochrome b558 in microarray) and gp91-phox, 94° C. for 45 S, 60° C. for 60 S, and 72° C. for 120 S (33 cycles); for GAPDH, 94° C. for 35 S, 55° C. for 45 S, and 72° C. for 90 S (25 cycles). Primer sequences used were as follows (5′-3′): for p22-phox, […] (forward) and […] (reverse); for p47-phox, CAGCCA […] (forward) and […] (reverse); for gp91-phox, […] TG (forward) and […] (reverse); for GAPDH, […] (forward) and […] (reverse). PCR products were run on a 1.2% agarose gel and visualized with ethidium bromide. The relative amount of mRNA was measured using LAS-1000 systems (Fuji Photofilm Co., Japan), normalized to levels of GAPDH mRNA. DNA sequencing was performed with Big Dye Terminator Chemistry from Perkin-Elmer Applied Biosystems on ABI PRISM™ 377 DNA sequencer (Foster City, Calif.)

[2] = test system: NADPH oxidase subunits gp91-phox, p47-phox, p67-phox; test: Western blot of NADPH oxidase subunits; details: over 16-32 hr exposure
Protocol: Western blot experiments were performed to analyze protein levels of NADPH oxidase subunits using available antibodies for gp91-phox, p47-phox, and p67-phox.
Cortical cell cultures were lysed in a lysis buffer containing 50 mM Tris-HCl (pH 7.5), 1% Nonidet P-40, 150 mM NaCl, 0.5% deoxycholic acid, 0.1% sodium dodecyl sulfate (SDS), 1 mM PMSF (phenylmethylsulfonyl fluoride), 10 μg/ml pepstain A, and 100 μg/ml leupeptin. Cell lysates were centrifuged at 12,000 g for 10 min. approximately 25 μg of protein was subjected to electrophoresis on 12% SDS-polyacrylamide gel and transferred to a nitrocellulose membrane. The blot was incubated in 2.5% bovine serum albumin for 1 hr, incubated with goat polyclonal primary antibodies, anti-gp91-phox, anti-p67-phox, or anti-p47-phox antibodies (1:1000, Santa Cruz, Santa Cruz, Calif.), and then reacted with a biotinylated anti-goat secondary antibody. Immunoreactivity was detected with Vectastain ABC kit (Vector Laboratory, Burlingame, Calif., USA) and luminol for enhanced chemiluminescence Intron, Korea). The signal was analyzed by quantitative densitometry using LAS-1000 systems (Fuji Photofilm Co., Japan).

[3] = test system: p47-phox and p67-phox in cortical cell cultures; test: Immunocytochemistry of p47-phox and p67-phox; details: 32 hr following exposure
Protocol: Immunocytochemistry was performed to identify which types of cells express NADPH oxidase in cortical cell cultures containing neurons and glia.
Cortical cell cultures (DIV 12-14) grown on glass bottom dishes were fixed in 4% paraformaldehyde for 30 min, incubated in 10% horse serum for 1 hr, and double-immunolabeled with a mouse monoclonal antibody against NeuN (1:400 dilution, Chemicon, Temecula, Calif.) and a goat polyclonal antibody against p47-phox or p67-phox (1:200 dilution, Santa Cruz, Santa Cruz, Calif.) for 2-4 hr. Cultures were then reacted with fluorescein isothiocyanate-conjugated anti-goat IgG (1:200 dilution, Organon Teknika Corp., NC) and Texas red-conjugated anti-mouse IgG (1:200, Vector Laboratory, Burlingame, Calif.) for 1-2 hr. The fluorescence images were collected and analyzed with a fluorescence microscopy (Zeiss, Germany) equipped with the Real-14™ precision digital camera (Apogee Instrument, Tucson, Ariz.) and ImagePro Plus Plug-in (Silver Spring, Md.).

[4] = test system: NADPH oxidase activation (p47-phox, p67-phox); test: Subcellular fractionation and western blot, translocation of p47-phox and p67-phox; details: exposed for 16-32 hr
Protocol: Activation of NADPH oxidase involves translocation of the cytosolic p47-phox and p67-phox subunits into the plasma membrane (Clark et al., 1989, Trans. Assoc. Am. Physicians., 102, 224-230). We examined if treatment with BDNF would activate NADPH oxidase through isolating the cytosol and membrane fraction.
Cortical cell cultures were washed with ice-cold PBS and resuspended in an isotonic buffer containing 10 mM HEPES, pH 8.0, 250 mM sucrose, 1 mM EDTA, 1 mM EGTA, 1 mM dithiothreitol (DTT), 2 mM PMSF, 100 μg/ml leupeptin, and 10 μg/ml pepstatin A. For isolating the cytosol and membrane fraction, the lysate was homogenized with a homogenizer (KONTE, Vieland, N.J.), centrifuged at 9,000 g for 10 min, and the supernatant was then centrifuged at 100,000 g for 1 hr.
The membrane fraction was obtained by resuspending the pellet with 50 μl lysis buffer and the cytosolic fraction was obtained from the supernatant. As shown in <EXAMPLE 7-4>, western blot experiments were performed to analyze protein levels of NADPH oxidase subunits using available antibodies for gp91-phox, p47-phox, and p67-phox.

[5] = test system: Neuron-rich cortical cell cultures; test: Serum deprivation-induced neuronal apoptosis, counting viable neurons
Protocol: For neuron-glia mixed cultures, 10 μM cytosine arabinoside (Ara C) was included to stop the overgrowth of non-neuronal cells to cultures at DIV 5-7 when glial cells were confluent underneath neurons. After 2 days, cultures were then fed with plating medium lacking fetal serum twice a week. Cultures were maintained at 37° C. in a humidified 5% CO2 incubator. For neuron-rich cultures (>95%), 2.5 μM Ara C was included to cultures at 2-3 days in vitro (DIV 2-3) as previously described (Gwag et al., 1997).
Mixed cortical cell cultures (DIV 12-14) were rinsed in serum free MS (MEM supplemented with 26.5 mM sodium bicarbonate and 21 mM glucose) and then exposed to various concentrations of NGF, BDNF or NT-3 in serum free MS. Neuronal cell death was analyzed by measuring the level of lactate dehydrogenase (LDH) released into the bathing medium. The percent neuronal death was normalized to the mean LDH value released after a sham control (defined as 0%) or continuous exposure to 500 μM NMDA for 24 hr (defined as 100%) The latter produces complete neuronal death within 24 hr. For experiments for serum deprivation, neuron-rich cortical cell cultures (DIV 7) were placed into serum free MS containing 1 μM MK-801 as described (Gwag et al., 1995). Neuronal death was analyzed 24 and 48 hr later by counting viable neurons excluding Trypan Blue satained.
Neuron-rich cortical cell cultures (DIV 7) were deprived of serum, alone (serum deprivation) or in the presence of 100 ng/ml BDNF, 100 ng/ml BDNF plus 3 nM DPI, 3 nM DPI, 100 ng/ml BDNF plus 100 μM trolox, or 100 μM trolox. Neuronal death was assessed 24 hr and 48 hr later by counting viable neurons.

mRNA levels of p22-phox and gp91-phox ([1]; 4 hr later, lasted over the next 12 hr): maximally increased
mRNA levels of p47-phox subunit ([1]; from 30 min following administration): increased gradually
mRNA levels of p22-phox and gp91-phox ([1]; within 2 hr after treatment): increase
Substance: BDNF: brain-derived neurotrophic factor, a neurotrophin
Oxidation of HEt and DCDHF (ROS in cortical neurons; 100 ng/ml BDNF for 32 hr): increased oxidation
Fluorescent intensity of DCF in cortical neurons (ROS in cortical neurons; exposed for 16 hr): increased
Intraneuronal levels of ROS ([ROS]i) (ROS in cortical neurons; over 24-32 hr): further increased
Protein levels of NADPH oxidase subunits gp91-phox, p47-phox, and p67-phox [2]: increased
Signals of p47-phox and p67-phox (immunoreactivity) [3]: increased exclusively in neurons
Levels of p47-phox and p67-phox in cytosolic and membrane fraction [4]: reduced in the cytosolic fraction and increased in the membrane fraction
Protective effects of BDNF following serum deprivation ([5]; 100 ng/ml, within 48 hrs): disappeared
Neuronal apoptosis ([5]; serum deprivation, 100 ng/ml BDNF): prevented neuronal apoptosis
